Assay results reported in patent publication US12678384B2, “Sanitizing compositions containing ionic liquid” (CAGE BIO INC., priority 2020, dated 2026).
Like-named read-outs stand apart in the source and are kept apart here.

Legend:
[1] = in vivo
Protocol: Distilled water was used as a negative control. The patches were removed by the subjects after 24 h and a new one was applied by the site staff at the same exact site at the next visit. The subjects reported to the site for a total of 9 visits, 3 each week. During each visit the application area was observed by the study investigator and a new patch was applied.
This cosmetic study was approved by an IRB and conducted by AMA Laboratories Inc. in New York. […] The application area was occluded with hypoallergenic tape. The subjects were required to keep the tape for 24 h. At each visit, the application site was evaluated for skin irritation on a 5-point scale (0-4). […] The subjects were then evaluated for any skin reactions after 24 and 48 h.

[2] = tested on: human Coronavirus strain 229E (hCoV229E) (ATCC #VR-740); settings: for TCID10 (log10): 5% w/w in purified water, virus control 6.50; for CPE (cytopathic/cytotoxic effect), four replicate wells: 5% w/w
E. coli = assay: In vivo study of residual antimicrobial efficacy on finger taps (Example 7); settings: finger taps inoculated with E. coli 30 min (controls) or 30 min, 1 hr, 2 hrs (test article) post application
Protocol: • 1) Wash hands with nonmedicated soap to remove surface dirt and oil, dried, and finally decontaminate with 70% isopropyl alcohol. Allow to air dry. • 2) Apply test article (Sanitizer A containing 5% CAGE) and controls (70% Alcohol and DI Water or 0.9% Sterile Saline Solution) on each finger tap to cover it completely. Let it dry. • 3) Inoculate the finger taps #1-3 with 10 μL of high-concentrated suspension of E. coli at 30 min of post-application. • 4) Wait for 60 sec (contact time) • 5) Tap the finger on the TSA agar plate and transfer plates #1-3 into the incubator set at 37° C. • 6) Apply 10 μL of inoculum on Finger #4 at 1 hr. of post application. • 7) Wait for 60 sec and tap the finger on the TSA agar plate. Transfer plate into the incubator set at 37° C. • 8) Apply 10 μL of inoculum on Finger #5 at 2 hrs of post application. • 9) Wait for 60 sec and tap the finger on the TSA agar plate. Transfer plate into the incubator set at 37° C. • 10) Observe bacterial growth after 24 hrs in incubator.

| Compound | other adverse events reported in the study [1] | sensitization response [1] | subjects showing any skin reactions in the first 3 visits (7-days) [1] | subjects that did not display any irritation throughout the entire 21-day study [1] [subjects] | subjects that experienced some skin irritation [1] [subjects] | TCID10 (log10) ([2]; 5 minutes exposure) | TCID10 (log10) ([2]; 10 minutes exposure) | CPE (cytopathic/cytotoxic effect), four replicate wells ([2]; 5 minutes exposure, dilution (−Log10) −3) | CPE (cytopathic/cytotoxic effect), four replicate wells ([2]; 5 minutes exposure, dilution (−Log10) −4) | CPE (cytopathic/cytotoxic effect), four replicate wells ([2]; 5 minutes exposure, dilution (−Log10) −5) | CPE (cytopathic/cytotoxic effect), four replicate wells ([2]; 5 minutes exposure, dilution (−Log10) −6) | CPE (cytopathic/cytotoxic effect), four replicate wells ([2]; 5 minutes exposure, dilution (−Log10) −7) | CPE (cytopathic/cytotoxic effect), four replicate wells ([2]; 10 minutes exposure, dilution (−Log10) −3) | CPE (cytopathic/cytotoxic effect), four replicate wells ([2]; 10 minutes exposure, dilution (−Log10) −4) | CPE (cytopathic/cytotoxic effect), four replicate wells ([2]; 10 minutes exposure, dilution (−Log10) −5) | CPE (cytopathic/cytotoxic effect), four replicate wells ([2]; 10 minutes exposure, dilution (−Log10) −6) | CPE (cytopathic/cytotoxic effect), four replicate wells ([2]; 10 minutes exposure, dilution (−Log10) −7) | microbial growth after 24 hrs at 37° C. (E. coli) |
| --- | --- | --- | --- | --- | --- | --- | --- | --- | --- | --- | --- | --- | --- | --- | --- | --- | --- | --- |
| choline geranate [CG-101] | no other adverse events | did not create any sensitization response | None | 43 | 8 | ≤2.50 | ≤2.50 | 0000 | 0000 | 0000 | 0000 | 0000 | 0000 | 0000 | 0000 | 0000 | 0000 |  |
| CCO [70% Ethanol, Ethanol] |  |  |  |  |  |  |  |  |  |  |  |  |  |  |  |  |  | Microbial growth was observed |
